Laboratory results from patent publication US20120107835A1, “METHOD FOR DETECTING BETA-AMYLOID USING AMINO ACID DIMERS” (E[…] TELECOMM[…] INSTITUTE, priority 2010, published 2012).
No end group written: not given here. *: point of attachment. Biotin = O=C1N[C@H]2[C@H](CS[C@H]2CCCCC(=O)*)N1

Tested on: causative β-amyloid (Aβ42)
Experiment: Sandwich ELISA detection of β-amyloid using biotinylated amino acid dimers instead of secondary antibody (absorbance at 450 nm)
Type: binding
Conditions: Aβ40 vs Aβ42, dimer 100 μM, FIG. 2
Experimental: Detection of β-amyloid was carried out using the biotinylated amino acid dimers prepared in Example 1, as follows.
Normal β-amyloid (Aβ40) and causative β-amyloid (Aβ42) were obtained from rPeptide (at Bogart, Ga., USA), and monoclonal antibodies specific for the β-amyloids(primary antibodies) were obtained from Covance (France). Each of the primary antibodies was mixed with sodium carbonate (pH 9.2) and the solution was added to a 96-well microplate for coating the wells (high-affinity F series, available from
NUNC, and then the microplate was washed with PBS or distilled water.
Meanwhile, each β-amyloid was dissolved in a sodium carbonate buffer (pH 9.4, Pierce) to a concentration of 1.0 mg/mL. For dilution, 100 μL of the β-amyloid solution was mixed with 9,900 μL of PBS. Each 200 μL of the resulting β-amyloid solution was dispensed into the wells of the 96-well microplate, and incubated for 4-hr at a room temperature so that β-amyloid binds to the primary antibody. Then, the plate was washed five times with PBS buffer (Pierce, at Rockford, Ill., USA), and 100 μL of the biotinylated amino acid dimer solution (amino acid dimer, dissolved in PBS to a concentration of 100 μM) was added to allow reaction for 1 hr. Each well was washed five times with PBS buffer, and 200 μL of streptavidin-HRP solution (diluted by 1:10,000, Pierce, at Rockford, Ill., USA) was added to allow reaction over 1 hr. After the reaction was completed, the plate was washed three times with PBS buffer, 100 μL of TMB substrate solution (KPL, USA) was added to allow reaction for 10-minute under a dark condition. Then, 50 μL of 15% hydrochloric acid was added to stop the reaction, and the absorbance of the reaction mixture at 450 nm was measured using a microplate reader (Bio-RAD, iMark).

| Substance | difference of absorbance between Aβ40 and Aβ42 |
| --- | --- |
| Biotin-Ala-Arg [Dimer 1] | very significant |
| Biotin-Arg-Ile [Dimer 3] | very significant |
| Biotin-Arg-Leu [Dimer 5] | very significant |
| Biotin-Cys-Ser [Dimer 13] | very significant |
